Source: patent publication US20080220416A1, “Compositions for Inhibiting Cell Growth and Inducing Apoptosis in Cancer Cells and Methods of Use Thereof” (THE BOARD OF TRUSTEES OF THE UNIVERSITY OF ILLINOI, priority 2004, published 2008)
Peptide text beside a SMILES is read from it. * marks the point of attachment. Cbz = O=C(OCc1ccccc1)*

Experiments:
normal melanocytes = experiment: Proteasome inhibitors, apoptosis of normal melanocyte cultures (Annexin V FITC flow cytometry); type: cell-based, human
Protocol: The proteasome inhibitors lactacystin, MG-132, and bortezomib were evaluated for the ability to induce apoptosis in malignant melanoma cell lines (n=3) including an early passage line, RJ002L. MG-132 was obtained from Calbiochem (La Jolla, Calif.) and dissolved in DMSO. Lactacystin was purchased from Sigma Chemical Co. (St. Louis, Mo.) and dissolved in PBS. Bortezomib was obtained from a pharmacy as VELCADE (bortezomib) for Injection from a single use vial for intravenous use only (Millennium Pharmaceuticals, Cambridge, Mass.). A cell line with wild-type p53 (RJ002L) and two melanoma cell lines with mutant p53 alleles (C8161 and MUM2B) were included in this study. Two additional melanoma cell lines were also used: cutaneous SK-MeI-28 cells and primary, early passage MG012 cells. In addition, five normal melanocyte culture cell lines (MC-005, MC-006, MC-008, MC-009 and MC-011) were examined. Prior to testing, the melanoma cell lines were maintained in RPMI supplemented with 10% FBS. Normal human melanocytes were isolated from neonatal foreskins as previously described (Qin J et al., 2004, Mol Cancer Ther 3:895-902, 2004) and cultured with medium 154 containing growth supplements (Cascade Biologics, Portland, Oreg.).
To assess the effect of proteasome inhibitors on the cell lines, the cells were grown in suitable culture media as described above. […]
Following treatment with the proteasome inhibitors, the melanoma and melanocyte cell cultures were assayed for apoptotic cells using the APO TARGET Annexin V FITC staining kit (Biosource, Camarillo, Calif.) according to the manufacturer's instructions followed by flow cytometric analysis using FACScaliber (Becton Dickinson, Palo Alto, Calif.) as described in Qin, J. et al., 2001, Nat Med 7: 385-386. In some cases, cell cycle and apoptosis analysis was measured using propidium iodide staining and flow cytometry as described. […] For cell analysis, DNA histograms were analyzed using MultiCycle for Windows (Phoenix Flow Systems, San Diego, Calif.) as described in Denning, M. F. et al., 1998, J Biol Chem 273: 29995-30002.

NOXA = experiment: Western blot of NOXA after proteasome inhibitors in melanoma cells; type: cell-based, human; conditions: RJ002L, C8161, MUM2B, 18 hrs
Text: A panel of melanoma cells were used to assess the effect of bortezomib on pro-apoptotic proteins. RJ002L, C8161, MUM2B and SK-MeI-28 melanoma cells, as well as two normal melanocyte cultures (MC-010 and MC-012) were examined. Prior to testing, the RJ002L melanoma cell lines were maintained in RPMI supplemented with 10% FBS. Late passage melanoma cell lines (C8161, MUM2B and SK-Me1028) were utilized as previously described (Welch D et al., 1991, Int J Cancer 47:227-237; Bittner M et al., 2000, Nature 406:536-540). Normal human melanocytes were isolated from neonatal foreskins and cultured as previously described (Qin J et al., 2004, Mol Cancer Ther 3:895-902). Proliferating cells were examined by Western blot analysis before and after 18 hrs of exposure to bortezomib (1 μM). Antibodies were obtained as follows: Bad (SC-8044), Bcl-2 (SC-7382), Bcl-xL (SC-634), Mcl-1 (SC-819), Bak (SC-832) from Santa Cruz Biotechnology (Santa Cruz, Calif.); NOXA (OP180) from Calbiochem; Bid, Bim and PUMA from Cell Signaling (Beverly, Mass.); BAX from Upstate (Charlottesville, Va.); and β-actin from ICN (Irvine, Calif.). For the Western blot analysis, whole cell extracts were prepared as previously described (Denning M et al., 1998, J Biol Chem 273:29995-30002). Briefly, cells were harvested by scraping monolayers and washed with PBS. Cell pellets were resuspended in CHAPS buffers containing a protease inhibitor cocktail. Extracts were vigorously shaken at 4° C. for 15 min followed by centrifugation. Supernatants were collected and protein concentration determined using Bio-Rad reagent. Thirty to 50 microgram protein samples were resolved by SDS-polyacrylamide gel electrophoresis and transferred to polyvinylidene difluoride membrane by electroblotting. Membranes were probed with the various primary antibodies overnight at 4° C., followed by detection using ECL reagents (Amersham Pharmacia Biotech, Piscataway, N.J.) according to manufacturer's instructions.
Two other proteasome inhibitors, lactasytsin and MG-132, were tested for the ability to induce NOXA in melanoma cells and melanocytes. […]

| Compound | apoptotic response (normal melanocytes; MC009 and MC011, 0.01 to 10 μM, 24 hrs continuous exposure) | induction of BH3-only proteins (NOXA; SK-MeI-28, 1 μM) | cells undergoing apoptosis (normal melanocytes; MC-005, MC-006, MC-008, 24 hrs, 1, 5 or 10 μM) | NOXA induction (NOXA; 1 μM or 10 μM) |
| --- | --- | --- | --- | --- |
| CC(C)C[C@H](NC(=O)[C@H](Cc1ccccc1)NC(=O)c1cnccn1)B(O)O [bortezomib, N-(2-pyrazine)carbonyl-L-phenylalanine-L-leucine boronic acid] | less than 10% | only NOXA was consistently induced in all four melanoma cells | – | – |
| CC(C)C[C@@H](C=O)NC(=O)[C@H](CC(C)C)NC(=O)[C@H](CC(C)C)NC(=O)OCc1ccccc1 [MG-132, benzoxycarbonyl-Leucyl-Leucyl-Leucyl-aldehyde] (Cbz-Leu-Leu-Leu-aldehyde) | – | – | No more than 10% | induced high NOXA levels |
